In paper PMC4804716 (The FEBS journal, 2015):

Key:
[1] = Cyclic voltammetry of menadione derivatives; assay type: physicochemical; conditions: DMSO
[2] = pKa estimation by absorption spectrophotometry; assay type: physicochemical
[3] = Glutathionylation reaction kinetics; assay type: physicochemical; conditions: pH 7.5
[4] = molecular target: T1, Schistosoma mansoni thioredoxin glutathione reductase (SmTGR) (Schistosoma mansoni, UniProt Q962Y6); assay: SmTGR DTNB assay; assay type: biochemical
T1 sequence (Q962Y6 1-598): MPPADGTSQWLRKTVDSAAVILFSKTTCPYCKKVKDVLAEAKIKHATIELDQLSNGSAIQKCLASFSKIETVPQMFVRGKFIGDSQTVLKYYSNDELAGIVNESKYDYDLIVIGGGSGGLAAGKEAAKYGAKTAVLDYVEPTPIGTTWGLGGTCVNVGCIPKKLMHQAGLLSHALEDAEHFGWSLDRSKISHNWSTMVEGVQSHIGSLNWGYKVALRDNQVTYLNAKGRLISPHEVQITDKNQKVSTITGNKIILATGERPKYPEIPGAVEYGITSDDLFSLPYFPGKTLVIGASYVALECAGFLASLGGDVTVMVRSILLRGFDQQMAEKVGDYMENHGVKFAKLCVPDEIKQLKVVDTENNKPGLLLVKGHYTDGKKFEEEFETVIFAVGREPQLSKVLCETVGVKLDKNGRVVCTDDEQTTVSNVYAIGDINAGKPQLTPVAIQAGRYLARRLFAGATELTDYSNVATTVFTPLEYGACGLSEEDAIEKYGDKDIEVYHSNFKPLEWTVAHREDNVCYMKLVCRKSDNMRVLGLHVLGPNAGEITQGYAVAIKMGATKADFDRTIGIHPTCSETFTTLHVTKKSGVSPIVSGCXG

S. mansoni worms = assay: Antischistosomal activity against adult, ex vivo worms; assay type: cell-based, Schistosoma mansoni
[5] = Cytotoxicity against human MRC-5 cells; assay type: cell-based; conditions: human lung MRC-5 fibroblasts (MRC-5SV2 cells)
[6] = molecular target: T1, Schistosoma mansoni thioredoxin glutathione reductase (SmTGR); assay: Time-dependent inactivation of SmTGR; conditions: high inhibitor concentrations, 5 min incubation without NADPH

Epa1 ([1]; 0.1 M n-Bu4NPF6, v = 200 mV s^−1, reference KCl(3 M)/Ag/AgCl, first wave): −0.215 V
Ipc1/Ipa1 ([1]; 0.1 M n-Bu4NPF6, v = 200 mV s^−1, first wave): 1.67
E^1½ ([1]; E½ = (Epc+Epa)/2, 0.1 M n-Bu4NPF6, reference KCl(3 M)/Ag/AgCl, first wave): −0.271 V
ΔEp (first wave) ([1]; ΔE = Epa-Epc, 0.1 M n-Bu4NPF6, v = 200 mV s^−1): 111 mV
pKa [2]: ~7.1
IC50 [4]: 0.046 µM
SmTGR inactivation in the absence of NADPH [6]: resulted in inactivation
Compound: COc1ccc(OCC2=C(C(F)F)C(=O)c3ccccc3C2=O)cc1C(F)(F)F [Compound 9, 2-(difluoromethyl)-3-((4-methoxy-3-(trifluoromethyl)phenoxy)methyl)naphthalene-1,4-dione]
decrease of the k2 values compared to the difluoromenadione itself [3]: ~10 fold
antischistosomal activity against cultured ex vivo worms (S. mansoni worms; 50 μM compound alone): inactive
killing of worms whether RBCs were present or not (S. mansoni worms; 50 μM, with or without human red blood cells (10 μl/well)): no effect on killing the worms
IC50 at 3 days [5]: 11.2 µM
